Laboratory results: the OPERA property sets (Mansouri et al. 2018)

Details: for log10 biotransformation half-life (days) / log10 BCF: fish

Compound | boiling point [°C] | melting point [°C] | further results
CCCOCCO | 150 | – | log10 vapour pressure (mmHg): 0.494
CN(C)C(N)=O | – | 184 | –
CN=C=S | 119 | 36 | log10 Koc (L/kg): 0.97; log10 vapour pressure (mmHg): 0.549; ready biodegradability: not readily biodegradable
C=C=CCCCC | 106 | – | –
CCCCOCCOC(=O)COc1cc(Cl)c(Cl)cc1Cl | – | – | log10 vapour pressure (mmHg): -5.82
C#CC(C)N(C(=O)CCl)c1ccccc1 (centres undefined) | – | 43.5 | –
Cc1ccccc1C(=O)Cl | 214 | – | –
Nc1ncc2ncn(COCCO)c2n1 | – | 189 | –
Clc1ccc(Cl)c(-c2c(Cl)cc(Cl)c(Cl)c2Cl)c1 | – | – | log10 biotransformation half-life (days): 2.23
CCCCCCC(=O)OC | 174 | -56 | –
O=C(C(Cl)(Cl)Cl)C(Cl)(Cl)Cl | 203 | -2 | –
Nc1ccc(Oc2ccccc2)cc1 | – | 83 | –
O=c1[nH]cc(C(F)(F)F)c(=O)[nH]1 | – | 316 | –
O=C(O)c1cnc(O)nc1O | – | 283 | –
C#C[C@]1(OC(C)=O)CC[C@H]2[C@@H]3CCC4=C/C(=N/O)CC[C@@H]4[C@H]3CC[C@@]21CC | – | 216 | –
CCOP(=S)(OCC)SCS(=O)(=O)C(C)(C)C | – | – | log10 Koc (L/kg): 2.18
Cc1cc(C(C)(C)c2ccc(O)c(C)c2)ccc1O | – | 139 | –
CCCC(C)(Cl)Cl | – | 128 | –
CCOCOCOCC | 141 | – | –
C=Cc1ccc(C=C)cc1 | – | 31 | ready biodegradability: not readily biodegradable; log10 BCF: 2.48; log10 biotransformation half-life (days): 0.5
O=C(c1ccccc1)c1ccc([N+](=O)[O-])cc1 | – | 138 | –
CCc1ccc(O)c(OC)c1 | 236 | -7 | –
CCCCCCO | 158 | -44.6 | log10 Henry constant (atm·m³/mol): -4.77; log10 vapour pressure (mmHg): -0.0325; ready biodegradability: readily biodegradable
CC=C(C(=O)OC)C(=O)OC | – | – | ready biodegradability: readily biodegradable

Compound | boiling point [°C] | melting point [°C] | further results
Cn1c([N+](=O)[O-])cnc1COC(N)=O | – | 168 | –
O=c1cccco1 | 208 | 8.5 | –
Cc1coc(C)n1 | 108 | – | –
COC(=O)CCC(C)=O | 196 | – | –
NC(=O)OCc1ccccc1 | – | 88 | –
Oc1ccc(Cl)c(Cl)c1Cl | – | 83.5 | –
CC1=CC(=O)c2c(O)cccc2C1=O | – | 78.5 | –
Cc1ccc(C(C)(C)C)c(O)c1 | – | 46.5 | ready biodegradability: not readily biodegradable
COc1ccc(C[C@H]2c3cc(OC)c(OC)cc3CCN2C)cc1OC | – | 89 | –
CC(=O)NCc1ccccc1 | – | 61 | ready biodegradability: readily biodegradable
Cc1ccc([N+](=O)[O-])c(F)c1 | – | 53.2 | –
CC(C)(CCl)c1ccccc1 | 223 | – | –
Cc1ccc([N+](=O)[O-])cc1N | – | 106 | –
O=C1CC[C@@]2(O)[C@H]3Cc4ccc(O)c5c4[C@@]2(CCN3CC2CC2)[C@H]1O5 | – | 169 | –
O=C(Nc1ccc2nn(C3CCCCC3)nc2c1)c1ccccc1 | – | 212 | –
COc1ccc([N+](=O)[O-])c(N)c1 | – | 131 | –
CCCCCCCCCCCCCCCN | 308 | 37.3 | –
CN(C)c1ccc(C(=N)c2ccc(N(C)C)cc2)cc1 | 330 | 136 | log10 Koc (L/kg): 3.31; ready biodegradability: not readily biodegradable
N#CC(=NO)c1ccccc1 | – | 129 | –
O=[N+]([O-])c1ccc(NS(=O)(=O)c2ccc(Cl)c(C(F)(F)F)c2)c(Cl)c1 | – | 170 | –
CCOC(=O)[C@H](O)[C@@H](O)C(=O)OCC | 280 | 17 | –
O=C(CCl)OCCOC(=O)CCl | – | 45.5 | –
ClC1=C(Cl)[C@]2(Cl)[C@H]3[C@H]([C@@H]4O[C@]4(Cl)[C@@H]3Cl)[C@@]1(Cl)C2(Cl)Cl (mixture of isomers) | 353 | 144 | log10 Koa: 8.39
c1ccc(-c2ccncc2)nc1 | 281 | 61.5 | –

Compound | boiling point [°C] | melting point [°C] | further results
CC(C)Nc1ccc(Nc2ccccc2)cc1 | – | 74 | ready biodegradability: not readily biodegradable
C[n+]1cc2c3c(ccc2c2ccc4cc5c(cc4c21)OCO5)OCO3 | – | 266 | –
CN1CCC(N(Cc2ccccc2)c2ccccc2)CC1 | – | 115 | –
Cl[C@H]1[C@H](Cl)[C@@H](Cl)[C@H](Cl)[C@@H](Cl)[C@H]1Cl (racemic) | – | – | ready biodegradability: not readily biodegradable
CC(C)=CCC[C@@H](C)[C@H]1CC[C@H]2[C@@H]3CC=C4C[C@@H](O)CC[C@]4(C)[C@H]3CC[C@]12C | – | 122 | –
CN1C[C@@H]2C[C@H](C1)c1cccc(=O)n1C2 | – | 137 | –
CC(C)C(=O)Cl | 92 | -90 | –
Nc1cccc(N)n1 | 285 | 122 | ready biodegradability: not readily biodegradable
ClC1=C(Cl)C2(Cl)C3CCC4C(CCC3C1(Cl)C2(Cl)Cl)C1(Cl)C(Cl)=C(Cl)C4(Cl)C1(Cl)Cl (centres undefined) | – | – | ready biodegradability: not readily biodegradable
FC(F)Cl | -40.7 | -157 | log10 Henry constant (atm·m³/mol): -1.39; log10 vapour pressure (mmHg): 3.86; ready biodegradability: not readily biodegradable
Cc1c(Cl)c(=O)oc2cc(OP(=O)(OCCCl)OCCCl)ccc12 | – | 91 | –
ClCCCOCCCCl | 216 | – | –
O=C(O)C1CCCCC1C(=O)O (centres undefined) | – | – | log10 BCF: 0.3
CC/C=C/C(C)C | 85.9 | -142 | –
Cc1ccc2cc(C)ccc2c1 | 262 | 112 | log10 vapour pressure (mmHg): -2.37
C=C1C[C@@]23CC[C@H]4[C@@](C)(CCC[C@@]4(C)C(=O)O[C@@H]4O[C@H](CO)[C@@H](O)[C@H](O)[C@H]4O)[C@@H]2CC[C@]1(O[C@@H]1O[C@H](CO)[C@@H](O)[C@H](O)[C@H]1O[C@@H]1O[C@H](CO)[C@@H](O)[C@H](O)[C@H]1O)C3 | – | 198 | –
O[C@H](CCl)[C@H](O)CCl | – | 126 | –
CC(=O)CC(=O)C(F)(F)F | 106 | – | –
CCCCCOC(=O)Nc1ccccc1 | – | – | log10 Koc (L/kg): 2.61
COc1ccc2c(c1)CC[C@@H]1[C@@H]2CC[C@]2(C)C(=O)[C@H](Cl)C[C@@H]12 | – | 180 | –
CC(=O)[C@H]1CC[C@H]2[C@@H]3CC[C@@H]4CC(=O)CC[C@]4(C)[C@H]3CC[C@]12C | – | 123 | –
Oc1ccc2cccc(Cl)c2c1 | 308 | 101 | –
CCCCCCCCCC[N+](C)(C)Cc1ccccc1 | – | – | ready biodegradability: not readily biodegradable
FC1CCCCC1 | 101 | 13 | –

Compound | boiling point [°C] | melting point [°C] | further results
CC(C)CC=O | 92.5 | -51 | log10 vapour pressure (mmHg): 1.7
Clc1ccc(CSc2ccc(Cl)cc2)cc1 | – | 75 | –
C#CCCCCCCCCCCCCCC | 284 | 15 | –
CC(C)(C)c1cc(C(C)(C)C)c(O)c(C(C)(C)C)c1 | 278 | 131 | log10 vapour pressure (mmHg): -3.18; ready biodegradability: not readily biodegradable; log10 BCF: 4.14; log10 biotransformation half-life (days): 1.81
CN(C)c1ccccn1 | 196 | 182 | –
CC(C)(C)C(=O)C(=O)O | 189 | 90.5 | –
CC(C)(C)c1ccc(C(=O)O)cc1 | – | 164 | ready biodegradability: not readily biodegradable; log10 BCF: 0.66
O=C1c2ccccc2C(=O)c2c1cccc2S(=O)(=O)O | – | – | ready biodegradability: not readily biodegradable
CCCCCCCCCCCCCCCCCCOC(C)=O | – | 34.5 | –
Cc1cncc(C)c1 | 172 | -6.6 | log10 Henry constant (atm·m³/mol): -5.16; log10 vapour pressure (mmHg): 0.239
Cc1ncc([N+](=O)[O-])n1CC(O)CCl (centres undefined) | – | 77.5 | –
Cc1cc(Cl)c(Cl)cc1Cl | 231 | 82.4 | log10 Henry constant (atm·m³/mol): -2.82; log10 BCF: 3.87; log10 biotransformation half-life (days): 2.01
Clc1cc(Cl)cc(-c2c(Cl)c(Cl)cc(Cl)c2Cl)c1 | – | – | log10 Henry constant (atm·m³/mol): -4.54
O=C1Cc2ccccc2O1 | 249 | 50 | –
COC(=O)Cn1ccnc1[N+](=O)[O-] | – | 96 | –
CNC(=O)Oc1cccc(N=CN(C)C)c1.Cl | – | – | log10 vapour pressure (mmHg): -7.92
CCCCCCBr | 155 | -84.7 | log10 vapour pressure (mmHg): 0.591
CC(C)(C)C | 9.5 | -16.4 | log10 vapour pressure (mmHg): 3.11
CC(=O)Nc1ccc2c(c1)Cc1cc(F)ccc1-2 | – | – | ready biodegradability: not readily biodegradable
CC[C@]12CCCN3CCc4c(n(c5ccccc45)[C@@](O)(C(=O)OC)C1)[C@@H]32 | – | 232 | –
CCOC(=O)CNc1ccccc1 | 274 | 58 | –
CCc1ccc2ccc3cccc4ccc1c2c34 | – | – | log10 biotransformation half-life (days): 0.24
CC(C)N(N=O)C(C)C | 194 | 48 | –
CCOC(=O)[C@H](C)Cl | 147 | – | log10 vapour pressure (mmHg): 0.557

Compound | boiling point [°C] | melting point [°C] | further results
N#Cc1cccc(O)c1 | – | 80 | –
Nc1cccnc1 | 252 | 64.5 | ready biodegradability: not readily biodegradable; log10 BCF: 0.32
O=C(O)c1ccc2cc(C(=O)O)ccc2c1 | – | – | ready biodegradability: not readily biodegradable; log10 BCF: 0.81
Cc1ccc(Cl)cc1N | 239 | 26 | –
CC(=O)c1ccc(O)cc1 | – | 110 | ready biodegradability: readily biodegradable
Nc1ccccc1Nc1ccccc1 | 313 | 79.5 | –
Cc1ccc(N)c(Br)c1 | 240 | 26 | –
CCCCCCCCCCc1ccc(N)cc1 | – | 25 | –
ClCc1ccc(CCl)cc1 | – | 100 | –
CC1(C)COC(C)(C)C1 | 121 | – | –
C=Cc1ccccn1 | 160 | – | log10 vapour pressure (mmHg): 0.444; ready biodegradability: not readily biodegradable
N#Cc1cc(Br)c(O)c(Br)c1 | – | 190 | log10 vapour pressure (mmHg): -7.33; ready biodegradability: readily biodegradable
CC(C)=C1OC(=O)C1(C)C | 170 | -18 | –
CCOc1ccc(C(COCc2cccc(Oc3ccc(Cl)cc3)c2)C(F)(F)F)cc1 (centres undefined) | – | – | log10 vapour pressure (mmHg): -9.01
CCC(=O)O | 141 | -20.7 | log10 Henry constant (atm·m³/mol): -6.35; log10 vapour pressure (mmHg): 0.548; ready biodegradability: readily biodegradable
Clc1cc(Cl)c2ccccc2c1 | 291 | 62.3 | –
CNP(=O)(OC)Oc1ccc(C(C)(C)C)cc1Cl (centres undefined) | – | 60 | –
CCCCC(CC)COC(=O)c1ccc(C(=O)OCC(CC)CCCC)c(C(=O)OCC(CC)CCCC)c1 (centres undefined) | 414 | – | ready biodegradability: not readily biodegradable; log10 BCF: 1.17
ClCCOCCCl | 178 | -51.9 | log10 Koc (L/kg): 1.88; log10 vapour pressure (mmHg): 0.19; ready biodegradability: not readily biodegradable; log10 BCF: 1; log10 biotransformation half-life (days): -0.81
[O-][n+]1ccccc1 | – | 65.5 | –
NC(=O)Nc1ccccc1Cl | – | – | log10 Koc (L/kg): 1.61
